Experimental data reported in US20150368617A1, “METHOD FOR FORMING ENDOTHELIAL CELLS” (Korea Advanced Institute of Science and Technology (KAIST), priority 2012, published 2015).
“Also recorded” adds a separate entry of the source.

Tested on: Flk1+ MPCs
Assay: Western blotting of signaling proteins in Flk1+ MPCs
Assay type: cell-based, mouse
Protocol: FIGS. 10A-10B. PI3-kinase/Akt signaling and MyPT-MLC signaling are involved in ROCK suppression-induced expansion of ECs. Flk1+ MPCs were incubated with indicated agents for 2 days, and analyses were performed on day 6.5. (FIG. 10A) Immunoblotting for pPTEN, PTEN, pAkt, Akt, pERK, ERK, pMyPT, MyPT, pMLC, MLC, ┌ SMA and GAPDH in Flk1+ MPCs treated with PBS (Control), Y27632 (10┌ M), VEGF-A (50 ng/ml; VA), or VA plus Y27632. The Flk1+ MPCs were cultured for 12 hrs, starved for 6 hrs with or without Y27632, and then treated with VEGF-A (50 ng/ml) for 10 min. Results from four independent trials were similar to each other. (FIG. 10B) Quantitative analyses of phosphorylations of AKT, PTEN, MyPT and MLC. Signal intensities were quantitatively evaluated using Image J software. Intensity of phosphorylated/total form of each protein in Control is regarded as 1 and relative intensities are expressed as fold. The mean of relative values from four independent experiments are represented. *p<0.01 versus Control. ^#p<0.01 versus VEGF-A. N.D represents non-detected.
Cell lysates were separated by SDS-PAGE gel and transferred to PVDF membranes for Western Blot analysis. After blocking with 5% skim milk, the membranes were first incubated with primary antibodies in blocking buffer overnight at 4┌ C, then with HRP-conjugated secondary antibodies for 1 hr at RT. The following primary antibodies were used: anti-RhoA (mouse monoclonal, Cytoskeleton Inc.), anti-ROCK1 (mouse monoclonal, Santa Cruz), anti-ROCK2 (rabbit polyclonal, Santa Cruz), anti-┌-tubulin (mouse monoclonal, Santa Cruz), anti-phospho-PTEN (Ser380/Thr382/383)(clone 44A7, Cell Signaling), anti-PTEN (clone 138G6, Cell Signaling), anti-phospho-Akt (Ser473)(clone 193H12, Cell Signaling), anti-Akt (rabbit polyclonal, Cell Signaling), anti-phospho-ERK (Thr202/Tyr204) (clone 20G11, Cell Signaling), anti-ERK (rabbit monoclonal, Cell Signaling), anti-phospho-MyPT (Thr696) (rabbit polyclonal, Cell Signaling), anti-MyPT (rabbit polyclonal, Cell Signaling), anti-phospho-MLC (Thr18/Ser19) (rabbit polyclonal, Cell Signaling), anti-MLC (rabbit polyclonal, Cell Signaling), anti-┌ SMA (rabbit polyclonal, Novus Biologicals), anti-GAPDH (rabbit polyclonal, Santa Cruz), anti-phospho-VEGFR2 (Tyr1175) (clone 19A10, Cell Signaling), and anti-VEGFR2 (clone 55B11, Cell Signaling). The secondary antibodies used were rabbit anti-mouse IgG-HRP (Santa Cruz) and goat anti-rabbit IgG-HRP (Santa Cruz). Signals were developed with enhanced chemiluminescence HRP substrate (Millipore) and detected using LAS-3000 mini (Fuji film).

[1] = Y27632 10 μM, VEGF-A 50 ng/ml for 10 min
[2] = regardless of VEGF-A stimulation

## C[C@@H](N)[C@H]1CC[C@H](C(=O)Nc2ccncc2)CC1 [Y27632]
[1]
  phosphorylation of Akt (Ser473): phosphorylated
  phosphorylation of ERK: but not ERK
  phosphorylation of PTEN (Ser380, Thr382 and Thr383): phosphorylated
[2]
  phosphorylation of MLC: almost completely reduced; also recorded: inhibits
  phosphorylation of MyPT: almost completely reduced
  protein levels of αSMA: reduced
